Reference: patent US7879825B2, “Derivatives of [2-(8,9-dioxo-2,6-diazabicyclo[5.2.0]non-1(7)-en-2-yl)alkyl] phosphonic acid and methods of use thereof” (Wyeth LLC, priority 2003, dated 2011)
Marks after values point to notes of the source that are not given here. One block for each compound: values may come before it.

Legend:
[1] = system: PGE2-induced thermal hypersensitivity; experiment: Reversal of prostaglandin E2 (PGE2)-induced thermal hypersensitivity, warm-water tail withdrawal; assay type: in vivo, Sprague-Dawley rats; conditions: single oral (PO) dose before PGE2 injection into tail, assessed 30 min after PGE2, SEM in parentheses
Experimental: The compounds of the present invention were evaluated for their effectiveness to treat pain. […] The test methods used herein have been used by others skilled in the art to evaluate the effectiveness of compounds for relieving pain. See e.g., Bennett G J and Xie T K, A peripheral mononeuropathy in rat produces disorders of pain sensation like those seen in man, Pain 33: 87-107 (1988); Chaplan S R, Bach […], Chung J M and Yaksh T L, Quantitative assessment of tactile allodynia in the rat paw, J. Neurosci. Methods 53: 55-63 (1994); and Mosconi T and Kruger L, Fixed-diameter polyethylene cuffs applied to the rat sciatic nerve induce a painful neuropathy: ultrastructural morphometric analysis of axonal alterations Pain 64: 37-57 (1996). Individually housed Sprague-Dawley rats had free access to rat chow and water. A 12-h light/12-h dark cycle was in effect (lights on from 6:00 am to 6:00 pm). Animal maintenance and research were conducted in accordance with the guidelines provided by the National Institutes of Health Committee on Laboratory Animal Resources. These subjects were used in the tests below. The terminal 10 cm of the tail was placed into a thermos bottle containing water warmed to 38, 42, 46, 50 or 54° C. The latency in seconds for the animal to remove the tail from the water was used as a measure of nociception. […] Temperature-effect curves were generated before (baseline) and 30 minutes after the PGE2 injection. […] The ability of compounds to reverse PGE2-induced thermal hypersensitivity was assessed using a single dose time-course procedure. […] sensitivity was assessed 30 min after PGE2 injection. Data Analysis-The temperature that produced a half-maximal increase in the tail-withdrawal latency (i.e., T10) was calculated from each temperature-effect curve. The T10 was determined by interpolation from a line drawn between the point above and the point below 10 sec on the temperature-effect curve.

Compound: O=c1c2c(c1=O)N(CCP(=O)(O)O)CCCN2 [Comparative 1, [2-(8,9-dioxo-2,6-diazabicyclo[5.2.0]non-1(7)-en-2-yl)ethyl]phosphonic acid, reference compound]
- Reversal of PGE2-induced thermal hypersensitivity, % MPE (±1 SEM) ([1]; 10 mg/kg): −4.7 (10.6)** % MPE
- Reversal of PGE2-induced thermal hypersensitivity, % MPE (±1 SEM) ([1]; 30 mg/kg): 44 (9.5) % MPE

Compound: O=C(OCOP(=O)(CCN1CCCNc2c1c(=O)c2=O)OCOC(=O)c1ccccc1)c1ccccc1 [Example 1, 3-{2-[8,9-Dioxo-2,6-diazabicyclo[5.2.0]non-1(7)-en-2-yl]ethyl}-3-oxido-7-oxo-7-phenyl-2,4,6-trioxa-3-phosphahept-1-yl benzoate]
- Reversal of PGE2-induced thermal hypersensitivity, % MPE (±1 SEM) ([1]; 10 mg/kg): 57.2 (4.7) % MPE
- Reversal of PGE2-induced thermal hypersensitivity, % MPE (±1 SEM) ([1]; 30 mg/kg): 81 (3.4) % MPE

Compound: CCCC(CCC)C(=O)OCOP(=O)(CCN1CCCNc2c1c(=O)c2=O)OCOC(=O)C(CCC)CCC [Example 2, 3-{2-[8,9-Dioxo-2,6-diazabicyclo[5.2.0]non-1(7)-en-2-yl]ethyl}-3-oxido-7-oxo-8-propyl-2,4,6-trioxa-3-Phosphaundec-1-yl 2-propylpentanoate]
- Reversal of PGE2-induced thermal hypersensitivity, % MPE (±1 SEM) ([1]; 10 mg/kg): 45.6 (13.9) % MPE
- Reversal of PGE2-induced thermal hypersensitivity, % MPE (±1 SEM) ([1]; 30 mg/kg): 76.5 (3.3) % MPE

Compound: CC(C)(C)C(=O)OCOC(CCN1CCCNc2c1c(=O)c2=O)(O[PH2]=O)OC(=O)C(C)(C)C (stereo not shown) [Example 3, 2,2-Dimethyl-propionic acid (2,2-dimethyl-propionyloxymethoxy)-[2-(8,9-dioxo-2,6-diaza-bicyclo[5.2.0]non-1(7)-en-2-yl)-ethyl]-phosphinoyloxymethyl ester]
- Reversal of PGE2-induced thermal hypersensitivity, % MPE (±1 SEM) ([1]; 30 mg/kg): 87.6 (3.3) % MPE

Compound: CC(OC(=O)C1CCCCC1)OP(=O)(CCN1CCCNc2c1c(=O)c2=O)OC(C)OC(=O)C1CCCCC1 (stereo not shown) [Example 4, 7-Cyclohexyl-3-{2-[8,9-dioxo-2,6-diazabicyclo[5.2.0]non-1(7)-en-2-yl]ethyl}-1,5-dimethyl-3-oxido-7-oxo-2,4,6-trioxa-3-phosphahept-1-yl cyclohexanecarboxylate]
- Reversal of PGE2-induced thermal hypersensitivity, % MPE (±1 SEM) ([1]; 30 mg/kg): 78.9 (5.8) % MPE

Compound: CC(OC(=O)C1CCCCC1)OP(=O)(CCN1CCCNc2c1c(=O)c2=O)OC(C)OC(=O)C1CCCCC1 (stereo not shown) [Example 5, 7-cyclohexyl-3-{2-[8,9-dioxo-2,6-diazabicyclo[5.2.0]non-1(7)-en-2-yl]ethyl}-1,5-dimethyl-3-oxido-7-oxo-2,4,6-trioxa-3-phosphahept-1-yl cyclohexanecarboxylate]
- Reversal of PGE2-induced thermal hypersensitivity, % MPE (±1 SEM) ([1]; 30 mg/kg): 55.9 (9.8) % MPE

- melting point: 64 to 65 °C
Compound: O=C(OCOP(=O)(CCN1CCCNc2c1c(=O)c2=O)OCOC(=O)C1CCCCC1)C1CCCCC1 [Example 6, 7-Cyclohexyl-3-{2-[8,9-dioxo-2,6-diazabicyclo[5.2.0]non-1(7)-en-2-yl]ethyl}-3-oxido-7-oxo-2,4,6-trioxa-3-phosphahept-1-yl cyclohexanecarboxylate]
- Reversal of PGE2-induced thermal hypersensitivity, % MPE (±1 SEM) ([1]; 30 mg/kg): 16.8 (6.8) % MPE

Compound: CC(C)OC(=O)OCOP(=O)(CCN1CCCNc2c1c(=O)c2=O)OCOC(=O)OC(C)C [Example 7, [2-(8,9-Dioxo-2,6-diaza-bicyclo[5.2.0]non-1-(7)-en-2-yl)-ethyl]-phosphonic acid diiso propoxycarbonyloxymethyl ester]
- Reversal of PGE2-induced thermal hypersensitivity, % MPE (±1 SEM) ([1]; 10 mg/kg): 47.0 (12.6) % MPE
- Reversal of PGE2-induced thermal hypersensitivity, % MPE (±1 SEM) ([1]; 30 mg/kg): 77.5 (6.7) % MPE
